PubChem BioAssay AID2060513 (Molecular Pharmacology Branch, DTP, NCI, 2025)

Tested on: 299254-011-R-J1-PDC complex spheroids viability
Assay: Anticancer human tumor 299254-011-R-J1-PDC patient-derived melanoma cell line growth inhibition [GQUAD]
Details: for IC50: curve of first compound; for viability, T/C: stronger effect = lower value; active means viability on the fitted dose curve at most 10% of control; inactive means the rest
Method in brief: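 Multi-cell-type spheroids of tumor cells with HUVEC and mesenchymal stem cells, treated with drug combinations. Concentrations descend in half-log steps from near clinical Cmax, or from 10 microM where Cmax is unknown; viability read-out.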

[1] = second compound 0.0316 µM, first compound 0.0316 µM
[2] = second compound 0.0316 µM, first compound 0.1 µM
[3] = second compound 0.0316 µM, first compound 0.316 µM
[4] = second compound 0.0316 µM, first compound 1 µM
[5] = second compound 0.0316 µM, first compound 3.16 µM
[6] = second compound 0.0316 µM, first compound 10 µM
[7] = second compound 0.1 µM, first compound 0.0316 µM
[8] = second compound 0.1 µM, first compound 0.1 µM
[9] = second compound 0.1 µM, first compound 0.316 µM
[10] = second compound 0.1 µM, first compound 1 µM
[11] = second compound 0.1 µM, first compound 3.16 µM
[12] = second compound 0.1 µM, first compound 10 µM
[13] = second compound 0.316 µM, first compound 0.0316 µM
[14] = second compound 0.316 µM, first compound 0.1 µM
[15] = second compound 0.316 µM, first compound 0.316 µM
[16] = second compound 0.316 µM, first compound 1 µM
[17] = second compound 0.316 µM, first compound 3.16 µM
[18] = second compound 0.316 µM, first compound 10 µM
[19] = second compound 1 µM, first compound 0.0316 µM
[20] = second compound 1 µM, first compound 0.1 µM
[21] = second compound 1 µM, first compound 0.316 µM
[22] = second compound 1 µM, first compound 1 µM
[23] = second compound 1 µM, first compound 3.16 µM
[24] = second compound 1 µM, first compound 10 µM
[25] = second compound 3.16 µM, first compound 0.0316 µM
[26] = second compound 3.16 µM, first compound 0.1 µM
[27] = second compound 3.16 µM, first compound 0.316 µM
[28] = second compound 3.16 µM, first compound 1 µM
[29] = second compound 3.16 µM, first compound 3.16 µM
[30] = second compound 3.16 µM, first compound 10 µM
[31] = second compound 10 µM, first compound 0.0316 µM
[32] = second compound 10 µM, first compound 0.1 µM
[33] = second compound 10 µM, first compound 0.316 µM
[34] = second compound 10 µM, first compound 1 µM
[35] = second compound 10 µM, first compound 3.16 µM
[36] = second compound 10 µM, first compound 10 µM
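Further: spheroids exposed to the agents for seven days before readout.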
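Wherever viability, T/C is given: percent viability relative to DMSO vehicle control wells = 100%.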

CC(=O)O[C@H]1C(=O)[C@@]2(C)[C@H]([C@H](OC(=O)c3ccccc3)[C@]3(O)C[C@H](OC(=O)[C@H](O)[C@@H](NC(=O)c4ccccc4)c4ccccc4)C(C)=C1C3(C)C)[C@]1(OC(C)=O)CO[C@@H]1C[C@@H]2O + CN(C)c1ccc(Nc2c3ccc(NC(=O)CCN4CCCC4)cc3nc3cc(NC(=O)CCN4CCCC4)ccc23)cc1
0.461 µM: IC50 (second compound 0.0316 µM)
0.524 µM: IC50 (second compound 10 µM)
0.316 µM: IC50 (second compound 1 µM)
0.489 µM: IC50 (second compound 3.16 µM)
0.364 µM: IC50 (second compound 0.1 µM)
inactive: viability, T/C [1] 73.9% | viability, T/C [2] 84.6% | viability, T/C [3] 60.9% | viability, T/C [4] 26.3% | viability, T/C [5] 19% | viability, T/C [6] 17.5% | viability, T/C [7] 83.8% | viability, T/C [8] 87.4% | viability, T/C [9] 51.9% | viability, T/C [10] 23.7% | viability, T/C [11] 14.5% | viability, T/C [12] 11.2% | viability, T/C [13] 81.5% | viability, T/C [14] 96% | viability, T/C [15] 44% | viability, T/C [16] 37.1% | viability, T/C [17] 22.6% | viability, T/C [18] 16.4% | viability, T/C [19] 93.8% | viability, T/C [20] 78% | viability, T/C [21] 49.8% | viability, T/C [22] 28.6% | viability, T/C [23] 19.1% | viability, T/C [24] 17.7% | viability, T/C [25] 89.1% | viability, T/C [26] 83.8% | viability, T/C [27] 60.6% | viability, T/C [28] 32.2% | viability, T/C [29] 19.1% | viability, T/C [30] 16.4% | viability, T/C [31] 83.3% | viability, T/C [32] 84.3% | viability, T/C [33] 62.7% | viability, T/C [34] 33% | viability, T/C [35] 17.4% | viability, T/C [36] 15.1%
0.271 µM: IC50 (second compound 0.316 µM)

COc1cc(C2c3cc4c(cc3C(OC3OC5COC(C)OC5C(O)C3O)C3COC(=O)C23)OCO4)cc(OC)c1O (stereo not given) + CN(C)c1ccc(Nc2c3ccc(NC(=O)CCN4CCCC4)cc3nc3cc(NC(=O)CCN4CCCC4)ccc23)cc1
> 10 µM: IC50 (second compound 0.0316 µM) | IC50 (second compound 0.1 µM) | IC50 (second compound 0.316 µM) | IC50 (second compound 1 µM) | IC50 (second compound 3.16 µM) | IC50 (second compound 10 µM)
inactive: viability, T/C [1] 117% | viability, T/C [2] 102% | viability, T/C [3] 115% | viability, T/C [4] 88.3% | viability, T/C [5] 79.4% | viability, T/C [6] 88.7% | viability, T/C [7] 116% | viability, T/C [8] 105% | viability, T/C [9] 92.1% | viability, T/C [10] 92.6% | viability, T/C [11] 101% | viability, T/C [12] 87.1% | viability, T/C [13] 104% | viability, T/C [14] 107% | viability, T/C [15] 93.6% | viability, T/C [16] 88.2% | viability, T/C [17] 87.2% | viability, T/C [18] 76.8% | viability, T/C [19] 105% | viability, T/C [20] 107% | viability, T/C [21] 123% | viability, T/C [22] 93.5% | viability, T/C [23] 87.2% | viability, T/C [24] 95.2% | viability, T/C [25] 102% | viability, T/C [26] 108% | viability, T/C [27] 118% | viability, T/C [28] 81.2% | viability, T/C [29] 81.3% | viability, T/C [30] 81.3% | viability, T/C [31] 89.2% | viability, T/C [32] 105% | viability, T/C [33] 101% | viability, T/C [34] 107% | viability, T/C [35] 98% | viability, T/C [36] 81.8%

COc1cccc2c1C(=O)c1c(O)c3c(c(O)c1C2=O)CC(O)(C(=O)CO)CC3OC1CC(N)C(O)C(C)O1 (stereo not given) + CN(C)c1ccc(Nc2c3ccc(NC(=O)CCN4CCCC4)cc3nc3cc(NC(=O)CCN4CCCC4)ccc23)cc1
4.26 µM: IC50 (second compound 0.0316 µM)
5.65 µM: IC50 (second compound 0.1 µM)
5.46 µM: IC50 (second compound 3.16 µM)
6.44 µM: IC50 (second compound 10 µM)
4.9 µM: IC50 (second compound 1 µM)
5.03 µM: IC50 (second compound 0.316 µM)
inactive: viability, T/C [1] 109% | viability, T/C [2] 103% | viability, T/C [3] 90.5% | viability, T/C [4] 72.5% | viability, T/C [5] 61.9% | viability, T/C [6] 28.8% | viability, T/C [7] 93.1% | viability, T/C [8] 106% | viability, T/C [9] 94.6% | viability, T/C [10] 79.8% | viability, T/C [11] 71% | viability, T/C [12] 31.5% | viability, T/C [13] 112% | viability, T/C [14] 110% | viability, T/C [15] 81% | viability, T/C [16] 87.1% | viability, T/C [17] 64.8% | viability, T/C [18] 30.7% | viability, T/C [19] 99.7% | viability, T/C [20] 96.3% | viability, T/C [21] 90.1% | viability, T/C [22] 89.5% | viability, T/C [23] 63.4% | viability, T/C [24] 27.3% | viability, T/C [25] 109% | viability, T/C [26] 107% | viability, T/C [27] 83.7% | viability, T/C [28] 92.4% | viability, T/C [29] 72.4% | viability, T/C [30] 27.3% | viability, T/C [31] 91.8% | viability, T/C [32] 110% | viability, T/C [33] 87.6% | viability, T/C [34] 99.6% | viability, T/C [35] 75.9% | viability, T/C [36] 34%

Nc1ccn(C2OC(CO)C(O)C2(F)F)c(=O)n1 (stereo not given) + CN(C)c1ccc(Nc2c3ccc(NC(=O)CCN4CCCC4)cc3nc3cc(NC(=O)CCN4CCCC4)ccc23)cc1
3.16 µM: IC50 (second compound 0.316 µM)
> 10 µM: IC50 (second compound 0.0316 µM) | IC50 (second compound 0.1 µM) | IC50 (second compound 1 µM) | IC50 (second compound 3.16 µM) | IC50 (second compound 10 µM)
inactive: viability, T/C [1] 84% | viability, T/C [2] 73.5% | viability, T/C [3] 66.9% | viability, T/C [4] 60.4% | viability, T/C [5] 54.7% | viability, T/C [6] 59.3% | viability, T/C [7] 80.3% | viability, T/C [8] 94.6% | viability, T/C [9] 67.1% | viability, T/C [10] 56.6% | viability, T/C [11] 58.1% | viability, T/C [12] 59.7% | viability, T/C [13] 85.2% | viability, T/C [14] 117% | viability, T/C [15] 51.7% | viability, T/C [16] 59.6% | viability, T/C [17] 68.3% | viability, T/C [18] 56.7% | viability, T/C [19] 93.5% | viability, T/C [20] 81.2% | viability, T/C [21] 68.7% | viability, T/C [22] 57.8% | viability, T/C [23] 63% | viability, T/C [24] 72.9% | viability, T/C [25] 94.1% | viability, T/C [26] 98.1% | viability, T/C [27] 71.3% | viability, T/C [28] 59.7% | viability, T/C [29] 55.6% | viability, T/C [30] 59% | viability, T/C [31] 105% | viability, T/C [32] 80.1% | viability, T/C [33] 65.6% | viability, T/C [34] 64.3% | viability, T/C [35] 66.6% | viability, T/C [36] 61.6%

O=c1[nH]cc(F)c(=O)[nH]1 + CN(C)c1ccc(Nc2c3ccc(NC(=O)CCN4CCCC4)cc3nc3cc(NC(=O)CCN4CCCC4)ccc23)cc1
inactive: viability, T/C [1] 93.3% | viability, T/C [2] 106% | viability, T/C [3] 105% | viability, T/C [4] 104% | viability, T/C [5] 110% | viability, T/C [6] 82.9% | viability, T/C [7] 79.3% | viability, T/C [8] 91.4% | viability, T/C [9] 90.7% | viability, T/C [10] 92.2% | viability, T/C [11] 86.7% | viability, T/C [12] 91.5% | viability, T/C [13] 89.2% | viability, T/C [14] 106% | viability, T/C [15] 80.2% | viability, T/C [16] 93.3% | viability, T/C [17] 104% | viability, T/C [18] 82.6% | viability, T/C [19] 106% | viability, T/C [20] 91.3% | viability, T/C [21] 93.3% | viability, T/C [22] 84.6% | viability, T/C [23] 103% | viability, T/C [24] 101% | viability, T/C [25] 82.7% | viability, T/C [26] 103% | viability, T/C [27] 112% | viability, T/C [28] 95.1% | viability, T/C [29] 115% | viability, T/C [30] 106% | viability, T/C [31] 91.3% | viability, T/C [32] 96.8% | viability, T/C [33] 98.4% | viability, T/C [34] 94.7% | viability, T/C [35] 90.9% | viability, T/C [36] 96.3%
> 10 µM: IC50 (second compound 0.0316 µM) | IC50 (second compound 0.1 µM) | IC50 (second compound 0.316 µM) | IC50 (second compound 1 µM) | IC50 (second compound 3.16 µM) | IC50 (second compound 10 µM)
